One experiment has as its target T1, SMYD3 (Homo sapiens, UniProt Q9H7B4).
T1 construct: The SMYD3 full length enzyme was produced in-house by expression (with an N-terminal 6×His tag) in E. coli; 6xHis (N); made in house; host or cells: E. coli
T1 sequence (Q9H7B4 1-428): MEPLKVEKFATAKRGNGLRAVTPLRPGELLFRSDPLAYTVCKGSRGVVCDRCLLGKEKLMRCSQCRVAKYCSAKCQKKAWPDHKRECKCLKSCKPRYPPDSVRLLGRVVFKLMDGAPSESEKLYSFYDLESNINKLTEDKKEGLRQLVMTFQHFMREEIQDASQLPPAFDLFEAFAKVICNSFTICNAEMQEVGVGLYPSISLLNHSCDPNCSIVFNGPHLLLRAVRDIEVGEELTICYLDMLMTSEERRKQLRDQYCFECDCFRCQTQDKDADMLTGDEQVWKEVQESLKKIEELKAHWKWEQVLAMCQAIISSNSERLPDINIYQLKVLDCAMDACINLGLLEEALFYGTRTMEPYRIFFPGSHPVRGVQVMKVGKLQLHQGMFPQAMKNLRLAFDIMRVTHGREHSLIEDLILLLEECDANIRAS
Kind of experiment: SMYD3 Scintillation Proximity Assay (SPA), methylation of MAP3K2 Peptide. The conditions noted are these: SMYD3 full length enzyme 10 nM, 3H-SAM 125 nM, MAP3K2 Peptide 1 μM, 120 min at 22° C. The format is biochemical. As to the method: SMYD3 Scintillation Proximity Assay (SPA)
The SMYD3 full length enzyme was produced in-house by expression (with an N-terminal 6×His tag) in E. coli and purification by affinity chromatography on a Ni-NTA Sepharose column followed by a size exclusion chromatography step on a Superdex 200 16/60 column (GE Healthcare).
To this end, 100-fold concentrated compound solutions (in DMSO) were previously prepared by serial dilution (1:3.4) of 2 mM stocks in a clear low volume 384-well source microtiter plate (Greiner Bio-One), from which 100 nl of compounds were transferred into a white low volume test microtiter plate from the same supplier. […] The resulting mixture (5 μl final volume) was shortly centrifuged (2 min., 1500 rpm) and incubated at 22° C. during 120 min. […] Plates containing the stopped reaction were sealed with transparent adhesive foil (Perkin Elmer), centrifuged (2 min., 1500 rpm), and further incubated overnight at 4° C. in order to allow the SPA signals to develop. Subsequently, the amount of product was evaluated by measuring the energy transfer from the […] emitted by the 3H-labeled substrate to the scintillator co-polymerized in the bead's matrix, using a TopCount NXT scintillation counter (Packard) with the standard instrument settings for this purpose. The resulting scintillation counts were taken as indicator for the amount of methylated peptide per well. […] IC50 values were calculated by fitting the normalized inhibition data to a 4-parameter logistic equation using the XLFit analysis software (IDBS).

Experiment [1] addresses T2, untagged full length SMYD3 (Homo sapiens, UniProt Q9H7B4).
T2 construct: As protein untagged full length SMYD3 was used
T2 sequence (Q9H7B4 1-428): T1 sequence (Q9H7B4 1-428)
Kind of experiment: Thermal Shift Assay. To be noted: protein 1.5-2.0 μM, 5× SYPRO Orange, scans 25° C. to 80° C.; control 4% DMSO. The format is binding. As to the method:
Thermal Shift Assay Thermal melting experiments were performed with a ViiA™ Real-Time PCR machine (Thermo Fisher Scientific) in 384-well microliter plate with a final volume of 5 μL. Melting curves were obtained at a protein concentration of 1.5-2.0 μM and 5× SYPRO Orange (Invitrogen) using buffer containing 20 mM Tris pH7.0; 150 mM NaCl; 1.0 mM DTT. As protein untagged full length SMYD3 was used. […] As control 4% DMSO was used. Scans were measured from 25° C. to 80° C. at a scanning rate of 0.1° C./sec. All TSA data were analyzed by using Genedata Assay Analyzer.

`CC1C(=O)Nc2cc(C(=O)NCCC3CCC3)ccc2N(C(=O)N2CCC(N)CC2)C1C` (single isomer, unassigned) [Example 22, 1-[(4-aminopiperidin-1-yl)carbonyl]-N-(2-cyclobutylethyl)-2,3-dimethyl-4-oxo-2,3,4,5-tetrahydro-1H-1,5-benzodiazepine-7-carboxamide] displayed an IC50 against SMYD3 of 22.3 nM. Besides, the “Thermal shift assay (° C.)” value in experiment [1] is 9.50 °C.
Regarding `CCN1CCC(N(C)C(=O)N2c3ccc(C(=O)NCCC4CC4)cc3NC(=O)C[C@@H]2C)CC1` [Example 28, (2S)—N^7-(2-cyclopropylethyl)-N^1-(1-ethylpiperidin-4-yl)-N^1,2-dimethyl-4-oxo-2,3,4,5-tetrahydro-1H-1,5-benzodiazepine-1,7-dicarboxamide], the IC50 against SMYD3 was 130 nM. Further, the “Thermal shift assay (° C.)” value in experiment [1] turned out to be 9.94 °C.
Consider `C[C@H]1CC(=O)Nc2cc(C(=O)NCCC3CC3)ccc2N1C(=O)NC1CCNCC1` [Example 43, (2S)—N^7-(2-cyclopropylethyl)-2-methyl-4-oxo-N^1-(piperidin-4-yl)-2,3,4,5-tetrahydro-1H-1,5-benzodiazepine-1,7-dicarboxamide], for which the half-inhibitory concentration (IC50) at SMYD3 amounted to 481 nM. Besides, in experiment [1], the “Thermal shift assay (° C.)” value was 7.49 °C.
The matching figures for `CC1C(=O)Nc2cc(C(=O)NCCC3CC3)ccc2N(C(=O)N2CCC(N)CC2)C1C` (mixture of isomers) [Example 19, 1-[(4-aminopiperidin-1-yl)carbonyl]-N-(2-cyclopropylethyl)-2,3-dimethyl-4-oxo-2,3,4,5-tetrahydro-1H-1,5-benzodiazepine-7-carboxamide]: 37.2 nM and 10.30 °C.
The matching figures for `CCN1CCN(C(=O)N2c3ccc(C(=O)NCCC4CC4)cc3NC(=O)C[C@@H]2C)CC1` [Example 27, (2S)—N-(2-cyclopropylethyl)-1-[(4-ethylpiperazin-1-yl)carbonyl]-2-methyl-4-oxo-2,3,4,5-tetrahydro-1H-1,5-benzodiazepine-7-carboxamide]: 520 nM and 8.77 °C.
The matching figures for `CCCCCNC(=O)c1ccc2c(c1)NC(=O)CC(C)N2C(=O)c1ccc(C)cc1` (racemic) [Example 47, 2-methyl-1-(4-methylbenzoyl)-4-oxo-N-pentyl-2,3,4,5-tetrahydro-1H-1,5-benzodiazepine-7-carboxamide]: 22100 nM and 1.68 °C.
On SMYD3, `CCCCNC(=O)c1ccc2c(c1)NC(=O)CC(C)N2C(=O)c1cccc(F)c1` (racemic) [Example 52, N-butyl-1-(3-fluorobenzoyl)-2-methyl-4-oxo-2,3,4,5-tetrahydro-1H-1,5-benzodiazepine-7-carboxamide] had a concentration for half-maximal inhibition (IC50) of 18300 nM. Also, the “Thermal shift assay (° C.)” value in experiment [1] turned out to be 1.16 °C.
The corresponding values for `Cc1nocc1C(=O)N1c2ccc(C(=O)NCCC3CC3)cc2NC(=O)C(C)C1C` (single isomer, unassigned) [Example 10, N-(2-cyclopropylethyl)-2,3-dimethyl-1-[(3-methyl-1,2-oxazol-4-yl)carbonyl]-4-oxo-2,3,4,5-tetrahydro-1H-1,5-benzodiazepine-7-carboxamide] are over 20000 nM and 1.29 °C.
Compound `CC1CC(=O)Nc2cc(C(=O)NCCC3CC3)ccc2N1C(=O)c1ccccc1` (racemic) [Example 1, 1-benzoyl-N-(2-cyclopropylethyl)-2-methyl-4-oxo-2,3,4,5-tetrahydro-1H-1,5-benzodiazepine-7-carboxamide] came in with a concentration for half-maximal inhibition (IC50) against SMYD3 of 1660 nM. For the same compound, in experiment [1], the “Thermal shift assay (° C.)” value was 5.27 °C.
The matching figures for `C[C@H]1CC(=O)Nc2cc(C(=O)NCCC3CC3)ccc2N1C(=O)N1CCCNCC1` [Example 33, (2S)—N-(2-cyclopropylethyl)-1-(1,4-diazepan-1-ylcarbonyl)-2-methyl-4-oxo-2,3,4,5-tetrahydro-1H-1,5-benzodiazepine-7-carboxamide]: 46 nM and 10.17 °C.
The corresponding values for `C[C@H]1CC(=O)Nc2cc(C(=O)NCCC3CC3)ccc2N1C(=O)N1CCC(F)(F)CC1` [Example 25, (2S)—N-(2-cyclopropylethyl)-1-[(4,4-difluoropiperidin-1-yl)carbonyl]-2-methyl-4-oxo-2,3,4,5-tetrahydro-1H-1,5-benzodiazepine-7-carboxamide] are 2300 nM and 6.12 °C.
On SMYD3, `C[C@H]1CC(=O)Nc2cc(C(=O)NCCC3CC3)ccc2N1C(=O)N1CCNCC1` [Example 41, (2S)—N-(2-cyclopropylethyl)-2-methyl-4-oxo-1-(piperazin-1-ylcarbonyl)-2,3,4,5-tetrahydro-1H-1,5-benzodiazepine-7-carboxamide] registered a concentration for half-maximal inhibition (IC50) of 265 nM. The “Thermal shift assay (° C.)” value in experiment [1] was 7.22 °C.
The corresponding values for `C[C@H]1CC(=O)Nc2cc(C(=O)NCCC3CC3)ccc2N1C(=O)N1CCN(CCO)CC1` [Example 26, (2S)—N-(2-cyclopropylethyl)-1-{[4-(2-hydroxyethyl)piperazin-1-yl]carbonyl}-2-methyl-4-oxo-2,3,4,5-tetrahydro-1H-1,5-benzodiazepine-7-carboxamide] are 1260 nM and 6.08 °C.
The corresponding values for `C[C@H]1CC(=O)Nc2cc(C(=O)NCCC3CC3)ccc2N1C(=O)N1CC[C@@H](N)C1.Cl` [Example 39, (2S)-1-{[(3R)-3-aminopyrrolidin-1-yl]carbonyl}-N-(2-cyclopropylethyl)-2-methyl-4-oxo-2,3,4,5-tetrahydro-1H-1,5-benzodiazepine-7-carboxamide hydrochloride (1:1)] are 584 nM and 7.25 °C.
The matching figures for `Cc1nocc1C(=O)N1c2ccc(C(=O)NCCC3CC3)cc2NC(=O)C(C)C1C` (single isomer, unassigned) [Example 9, N-(2-cyclopropylethyl)-2,3-dimethyl-1-[(3-methyl-1,2-oxazol-4-yl)carbonyl]-4-oxo-2,3,4,5-tetrahydro-1H-1,5-benzodiazepine-7-carboxamide]: over 20000 nM and 1.82 °C.
Consider `Cc1nocc1C(=O)N1c2ccc(C(=O)NCCC3CC3)cc2NC(=O)CC1C` (racemic) [Example 5, N-(2-cyclopropylethyl)-2-methyl-1-[(3-methyl-1,2-oxazol-4-yl)carbonyl]-4-oxo-2,3,4,5-tetrahydro-1H-1,5-benzodiazepine-7-carboxamide], for which the IC50 at SMYD3 is over 20000 nM. Moreover, the “Thermal shift assay (° C.)” value in experiment [1] was determined as 2.90 °C.
The corresponding values for `CC1C(=O)Nc2cc(C(=O)NCCC3CCC3)ccc2N(C(=O)c2ccccc2)C1C` (mixture of isomers) [Example 4, 1-benzoyl-N-(2-cyclobutylethyl)-2,3-dimethyl-4-oxo-2,3,4,5-tetrahydro-1H-1,5-benzodiazepine-7-carboxamide] are 1230 nM and 4.38 °C.
Compound `Cc1nocc1C(=O)N1c2ccc(C(=O)NCCC3CC3)cc2NC(=O)C(C)C1C` (single isomer, unassigned) [Example 8, N-(2-cyclopropylethyl)-2,3-dimethyl-1-[(3-methyl-1,2-oxazol-4-yl)carbonyl]-4-oxo-2,3,4,5-tetrahydro-1H-1,5-benzodiazepine-7-carboxamide] gave an IC50 against SMYD3 of 4900 nM. Also, in experiment [1], the “Thermal shift assay (° C.)” value was found to be 3.77 °C.
The matching figures for `CCCCCNC(=O)c1ccc2c(c1)NC(=O)CC(C)N2C(=O)c1ccccc1F` (racemic) [Example 46, 1-(2-fluorobenzoyl)-2-methyl-4-oxo-N-pentyl-2,3,4,5-tetrahydro-1H-1,5-benzodiazepine-7-carboxamide]: 38700 nM and 2.02 °C.
